Experimental findings from US9274102B2, “Method of screening for an inhibitor of odor cause by furaneol” (Kao Corporation, priority 2013, dated 2016) are described below.

The structures appear in SMILES notation.

The first assay has as its target T1, olfactory receptor OR5K1 (Homo sapiens, UniProt Q8NHB7).
T1 construct: Flag-Rho tag (N); expressed in transfected cells; host or cells: HEK293
T1 sequence (Q8NHB7 1-308): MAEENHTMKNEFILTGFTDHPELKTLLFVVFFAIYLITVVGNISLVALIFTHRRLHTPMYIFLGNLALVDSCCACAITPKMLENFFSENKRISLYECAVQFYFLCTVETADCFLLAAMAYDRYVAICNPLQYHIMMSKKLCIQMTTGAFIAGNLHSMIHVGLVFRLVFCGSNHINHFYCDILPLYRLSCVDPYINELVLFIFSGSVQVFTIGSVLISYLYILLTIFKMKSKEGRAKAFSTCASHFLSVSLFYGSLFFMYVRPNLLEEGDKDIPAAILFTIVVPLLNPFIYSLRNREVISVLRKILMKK
In words: Antagonistic activity against the response of OR5K1 to Furaneol (luciferase reporter gene assay, HEK293 cells). The format is cell-based. Conditions: Furaneol 3 mM, test substance 100 μM; OR5K1-expressing HEK293 cells; read-out: rate of inhibition of the response of OR5K1 to Furaneol. On the procedure:
84 types of test substances were examined for their antagonistic activity against the response of the olfactory receptor OR5K1 to Furaneol.
Furaneol (3 mM) and each test substance (100 μM) were added to HEK293 cells allowed to express the olfactory receptor OR5K1 by the same procedures as in Example 2. The response of the olfactory receptor was measured to evaluate change in receptor response caused by the addition of the test substance.
The rate of inhibition of the receptor response by the test substance was calculated as follows: firefly luciferase-derived luminescence intensity (Y) in the olfactory receptor OR5K1-expressing cells without Furaneol stimulation was subtracted from firefly luciferase-derived luminescence intensity (X) induced by stimulation with Furaneol alone to determine receptor activity (X−Y) based on the stimulation with Furaneol alone. Likewise, the luminescence intensity (Y) in the cells without Furaneol stimulation was subtracted from luminescence intensity (Z) induced by stimulation with the mixture of Furaneol and the test substance to determine receptor activity (Z−Y) in the presence of the test substance. The rate of reduction in the receptor activity (Z−Y) in the presence of the test substance with respect to the receptor activity (X−Y) based on the stimulation with Furaneol alone was calculated according to an expression shown below to determine the rate of inhibition of the receptor response by the test substance. In this assay, a plurality of independent duplicate experiments were performed. An average of the experiments in each run was obtained. Rate of inhibition (%)={1−(Z−Y)/(X−Y)}×100
For the compound `CC(C)=CCCC(C)=CC=O` [Citral], the inhibition – broadly, the share of the control response that was lost under treatment – at 100 µM is no less than 75%.
As to `Cc1ccc(C(C)C)c(O)c1` [thymol, 5-Methyl-2-(1-methylethyl)-phenol], the inhibition at 100 µM was no less than 75%.
On to `CCC(=CCC1CC=C(C)C1(C)C)CO` (centres unmarked) [bangalol, 2-Ethyl-4-(2,2,3-trimethyl-3-cyclopenten-1-yl)-2-buten-1-ol], for which the inhibition at 100 µM was no less than 50%.
Consider `CC(=O)c1cc2c(cc1C)C(C)(C)C(C)CC2(C)C` [Tonalid(R), 1-(5,6,7,8-tetrahydro-3,5,5,6,8,8-hexamethyl-2-naphthalenyl)-ethanone], for which the inhibition at 100 µM is no less than 75%.
Same read-out and setting: the result for `CC(=O)O[C@]1(C)CC[C@@]23C[C@@H]1C(C)(C)[C@@H]2CC[C@H]3C` [Cedryl acetate] reads no less than 50%.
For `CC1C/C=C/CCCCCCCCCC(=O)C1` [Muscenone(R) Delta, (5E)-3-Methylcyclopentadec-5-en-1-one], the inhibition at 100 µM was no less than 75%.
Same read-out and setting: the result for `CC(=O)C1=C(C)C2CC3(C1)C(C)CCC3C2(C)C` (centres unmarked) [acetylcedrene, 1-(2,3,4,7,8,8a-hexahydro-3,6,8,8-tetramethyl-1H-3a,7-methanoazulen-5-yl)-ethanone] reads no less than 75%; that for `CC(C)(C)c1ccc(CCC=O)cc1` [bourgeonal, 3-(4-tert-Butylphenyl)propanal], no less than 75%.
Turning to `CC(=O)C1(C)CC2=C(CCCC2(C)C)CC1C` (centres unmarked) [Iso E Super, 7-Acetyl-1,2,3,4,5,6,7,8-octahydro-1,1,6,7-tetramethyl-naphthalene], the inhibition at 100 µM was no less than 75%.
Still for that read-out and setting: the result for `CC1COCc2cc3c(cc21)C(C)(C)C(C)C3(C)C` (centres unmarked) [galaxolide, 4,6,6,7,8,8-Hexamethyl-1,3,4,6,7,8-hexahydrocyclopenta[g]isochromene] reads no less than 75%.
The same measure, in the same setting: the same measure for `CC1(CO)CC1CC1CC2CC2(C)C1(C)C` [Javanol(R), (1-Methyl-2-(1,2,2-trimethylbicyclo[3.1.0]-hex-3-ylmethyl)cyclopropyl)methanol]: no less than 40%.
On the same count and under the same terms, the same measure for `CC(=O)/C(C)=C/C1C(C)=CCCC1(C)C` (centres unmarked) [methyl ionone-G, (E)-3-Methyl-4-(2,6,6-trimethylcyclohex-2-en-1-yl)but-3-en-2-one]: no less than 75%.

For the next assay, the target named is T1, olfactory receptor OR5K1. In words: Luciferase reporter gene assay: response of olfactory receptors expressed on HEK293 cells to Furaneol. The assay is classed as cell-based. Conditions: Furaneol 0, 3, 10, 30, 100, 300, 1000 and 3000 μM; OR5K1 with human RTP1S on HEK293 cells; FIG. 2. On the procedure: HEK293 cells expressing each of 400 types of human olfactory receptors were prepared. Each reaction solution having the composition shown in Table 1 was prepared, then left standing for 15 minutes in a clean bench, and then added to each well of a 96-well plate (Becton, Dickinson and Company). Subsequently, the HEK293 cells (3×10^5 cells/cm^2) were inoculated thereto at 100 μL/well and then cultured at 37° C. for 24 hours in an incubator kept at 5% CO2.
The olfactory receptors expressed on the HEK293 cells are conjugated with intracellular Gαs to activate adenylate cyclase, thereby increasing intracellular cAMP levels. In this study, their responses to Furaneol were measured using luciferase reporter gene assay which involved monitoring increase in intracellular cAMP level as luminescence intensity derived from a firefly luciferase gene (fluc2P-CRE-hygro). […]
A medium was removed from the cultures prepared in the preceding paragraph 3). […] The luciferase activity was measured using Dual-Glo™ luciferase assay system (Promega Corp.) according to the instruction manual of the product. Firefly luciferase-derived luminescence intensity induced by stimulation with Furaneol was divided by luminescence intensity in the cells without Furaneol stimulation to calculate a value as fold increase, which was in turn used as an index for response intensity. […]
(In general: Reporter assays use an easily measured gene product as a stand-in for the process of interest.)
Consider `CC1=C(O)C(=O)C(C)O1` (centres unmarked) [Furaneol, 2,5-dimethyl-4-hydroxy-3(2H)-furanone], for which the “concentration dependence of OR5K1 response to Furaneol” value is given as “concentration-dependent response”.

The assay is the same for the next values; noted with them: Furaneol 3 mM; 400 types of human olfactory receptors screened in HEK293 cells; FIG. 1.
As to `CC1=C(O)C(=O)C(C)O1` (centres unmarked) [Furaneol, 2,5-dimethyl-4-hydroxy-3(2H)-furanone], the “response of olfactory receptor to Furaneol (fold increase of luminescence)” value is reported as “only the olfactory receptor OR5K1 exhibited a response”.
